Biological target: human μ-opiate receptor (Homo sapiens, UniProt P35372)
Test: Affinity for the human μ-opiate receptor ([3H]-naloxone displacement, SPA, CHO-K1 membrane preparation)
Format: binding
Conditions: for inhibition at 1 µM: read-out: μ-Opioid receptor, % inhibition [1 μM]; for Ki: read-out: μ-Opioid receptor, Ki

human μ-opiate receptor, sequence (P35372 whole entry): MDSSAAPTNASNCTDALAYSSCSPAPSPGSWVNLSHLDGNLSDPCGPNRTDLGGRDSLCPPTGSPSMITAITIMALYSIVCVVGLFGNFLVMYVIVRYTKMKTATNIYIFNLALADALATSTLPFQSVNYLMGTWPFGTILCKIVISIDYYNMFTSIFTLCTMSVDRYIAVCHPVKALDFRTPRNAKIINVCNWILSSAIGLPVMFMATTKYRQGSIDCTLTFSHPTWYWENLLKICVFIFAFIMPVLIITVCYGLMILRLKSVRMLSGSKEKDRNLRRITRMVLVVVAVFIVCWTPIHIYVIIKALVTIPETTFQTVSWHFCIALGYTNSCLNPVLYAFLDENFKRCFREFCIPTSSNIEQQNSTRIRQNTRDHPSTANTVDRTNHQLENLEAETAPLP

## Cc1oc(-c2ccccc2)cc1C(=O)NCCC1CCC(C(c2ccccc2)N(C)C)CC1 (stereo not drawn) [compound 467, 2-methyl-5-phenyl-furan-3-carboxylic acid {2-[4-(dimethylamino-phenyl-methyl)-cyclohexyl]-ethyl}-amide]
  inhibition at 1 µM: 82%
  Ki: 62 nM

## CN(C)C(c1ccccc1)C1CCC(NC(=O)c2c(F)ccc(F)c2F)CC1 (stereo not drawn) [compound 244, N-[4-(dimethylamino-phenyl-methyl)-cyclohexyl]-2,3,6-trifluoro-benzamide]
  inhibition at 1 µM: 82%
  Ki: 30 nM

## CN(C)C(c1ccc(F)cc1)C1CCC(CNC(=O)CC(C)(C)C)CC1 (stereo not drawn) [compound 322, N-{4-[dimethylamino-(4-fluoro-phenyl)-methyl]-cyclohexylmethyl}-3,3-dimethyl-butyramide]
  inhibition at 1 µM: 95%
  Ki: 31 nM

## Cc1oc(-c2ccccc2)cc1C(=O)NCC1CCC(C(c2cccc(F)c2)N(C)C)CC1 (stereo not drawn) [compound 373, 2-methyl-5-phenyl-furan-3-carboxylic acid {4-[dimethylamino-(3-fluoro-phenyl)-methyl]-cyclohexylmethyl}-amide]
  μ-Opioid receptor, % inhibition [1 μM]: 84%
  Ki: 61 nM

## CN(C)C(c1cccs1)C1CCC(NC(=O)CC(C)(C)C)CC1 (stereo not drawn) [compound 200, N-[4-(dimethylamino-thiophen-2-yl-methyl)-cyclohexyl]-3,3-dimethyl-butyramide]
  inhibition at 1 µM: 94%
  Ki: 29 nM

## Cc1ccc(C(=O)NC2CCC(C(c3cccs3)N(C)C)CC2)cc1 (stereo not drawn) [compound 198, N-[4-(dimethylamino-thiophen-2-yl-methyl)-cyclohexyl]-4-methyl-benzamide]
  inhibition at 1 µM: 95%
  Ki: 15 nM

## CN(C)C(c1ccccc1)C1CCC(CCNC(=O)c2ccc(Cl)cc2)CC1 (stereo not drawn) [compound 405, 4-chloro-N-{2-[4-(dimethylamino-phenyl-methyl)-cyclohexyl]-ethyl}-benzamide]
  inhibition at 1 µM: 88%
  Ki: 25 nM

## CN(C)C(c1ccccc1)C1CCC(NC(=O)c2csc(-c3ccc4c(c3)CCO4)n2)CC1 (stereo not drawn) [compound 289, 2-(2,3-dihydro-benzofuran-5-yl)-thiazole-4-carboxylic acid [4-(dimethylamino-phenyl-methyl)-cyclohexyl]-amide]
  inhibition at 1 µM: 70%
  Ki: 78 nM

## CN(C)C(c1ccccc1)C1CCC(NC(=O)c2cccc([N+](=O)[O-])c2)CC1 (stereo not drawn) [compound 275, N-[4-(dimethylamino-phenyl-methyl)-cyclohexyl]-3-nitro-benzamide]
  inhibition at 1 µM: 74%
  Ki: 100 nM

## Cc1oc(-c2ccccc2)cc1C(=O)NCC1CCC(C(c2cccc(F)c2)N(C)C)CC1 (stereo not drawn) [compound 353, 2-methyl-5-phenyl-furan-3-carboxylic acid {4-[dimethylamino-(3-fluoro-phenyl)-methyl]-cyclohexylmethyl}-amide]
  inhibition at 1 µM: 87%
  Ki: 96 nM

## COc1ccccc1C(=O)NCCC1CCC(C(c2ccccc2)N(C)C)CC1 (stereo not drawn) [compound 414, N-{2-[4-(dimethylamino-phenyl-methyl)-cyclohexyl]-ethyl}-2-methoxy-benzamide]
  inhibition at 1 µM: 99%
  Ki: 4.6 nM

## CN(C)C(c1cccs1)C1CCC(CNC(=O)CC(C)(C)C)CC1 (stereo not drawn) [compound 301, N-[4-(dimethylamino-thiophen-2-yl-methyl)-cyclohexylmethyl]-3,3-dimethyl-butyramide]
  inhibition at 1 µM: 99%
  Ki: 2.7 nM

## CN(C)C(c1ccc(Cl)cc1)C1CCC(CCNC(=O)c2ccccc2Br)CC1 (stereo not drawn) [compound 395, 2-bromo-N-(2-{4-[(4-chloro-phenyl)-dimethylamino-methyl]-cyclohexyl}-ethyl)-benzamide]
  inhibition at 1 µM: 81%
  Ki: 46 nM

## Cc1onc(-c2c(Cl)cccc2Cl)c1C(=O)NCCC1CCC(C(c2cccs2)N(C)C)CC1 (stereo not drawn) [compound 469, 3-(2,6-dichloro-phenyl)-5-methyl-isoxazole-4-carboxylic acid {2-[4-(dimethylamino-thiophen-2-yl-methyl)-cyclohexyl]-ethyl}-amide]
  inhibition at 1 µM: 87%
  Ki: 57 nM

## COc1c(C(=O)NC2CCC(C(c3cccs3)N(C)C)CC2)csc1Cl (stereo not drawn) [compound 195, 5-chloro-4-methoxy-thiophene-3-carboxylic acid [4-(dimethylamino-thiophen-2-yl-methyl)-cyclohexyl]-amide]
  inhibition at 1 µM: 96%
  Ki: 15 nM

## COc1ccccc1C(=O)NCC1CCC(C(c2cccs2)N(C)C)CC1 (stereo not drawn) [compound 305, N-[4-(dimethylamino-thiophen-2-yl-methyl)-cyclohexylmethyl]-2-methoxy-benzamide]
  inhibition at 1 µM: 98%
  Ki: 12 nM

## CN(C)C(c1cccs1)C1CCC(CCNC(=O)c2c(Cl)cccc2Cl)CC1 (stereo not drawn) [compound 431, 2,6-dichloro-N-{2-[4-(dimethylamino-thiophen-2-yl-methyl)-cyclohexyl]-ethyl}-benzamide]
  inhibition at 1 µM: 93%
  Ki: 26 nM

## COc1c(C(=O)NC2CCC(C(c3cccc(F)c3)N(C)C)CC2)csc1Cl (stereo not drawn) [compound 191, 5-chloro-4-methoxy-thiophene-3-carboxylic acid {4-[dimethylamino-(3-fluoro-phenyl)-methyl]-cyclohexyl}-amide]
  inhibition at 1 µM: 99%

## CN(C)C(c1ccc(Cl)cc1)C1CCC(CCNC(=O)c2ccc(F)cc2F)CC1 (stereo not drawn) [compound 436, N-(2-{4-[(4-chloro-phenyl)-dimethylamino-methyl]-cyclohexyl}-ethyl)-2,4-difluoro-benzamide]
  inhibition at 1 µM: 91%
  Ki: 29 nM

## Cc1cc(C(=O)NC2CCC(C(c3ccccc3)N(C)C)CC2)n(C(C)(C)C)n1 (stereo not drawn) [compound 223, 2-tert-butyl-5-methyl-2H-pyrazole-3-carboxylic acid [4-(dimethylamino-phenyl-methyl)-cyclohexyl]-amide]
  inhibition at 1 µM: 88%
  Ki: 20 nM

## CN(C)C(c1cccs1)C1CCC(NC(=O)Cc2ccc(Cl)cc2)CC1 (stereo not drawn) [compound 219, 2-(4-chloro-phenyl)-N-[4-(dimethylamino-thiophen-2-yl-methyl)-cyclohexyl]-acetamide]
  inhibition at 1 µM: 89%
  Ki: 56 nM

## CN(C)C(c1cccs1)C1CCC(NC(=O)c2cc(Cl)cc(Cl)c2)CC1 (stereo not drawn) [compound 194, 3,5-dichloro-N-[4-(dimethylamino-thiophen-2-yl-methyl)-cyclohexyl]-benzamide]
  inhibition at 1 µM: 96%
  Ki: 5.3 nM

## CN(C)C(c1cccc(F)c1)C1CCC(NC(=O)c2cc3ccccc3s2)CC1 (stereo not drawn) [compound 231, benzo[b]thiophene-2-carboxylic acid {4-[dimethylamino-(3-fluoro-phenyl)-methyl]-cyclohexyl}-amide]
  inhibition at 1 µM: 86%
  Ki: 45 nM

## CN(C)C(c1ccccc1)C1CCC(NC(=O)c2cccc(Cl)c2)CC1 (stereo not drawn) [compound 187, 3-chloro-N-[4-(dimethylamino-phenyl-methyl)-cyclohexyl]-benzamide]
  inhibition at 1 µM: 100%
  Ki: 8.5 nM

## CN(C)C(c1ccccc1)C1CCC(NC(=O)CC(C)(C)C)CC1 (single isomer, unassigned) [compound 246, N-[4-(dimethylamino-phenyl-methyl)-cyclohexyl]-3,3-dimethyl-butyramide]
  μ-Opioid receptor, % inhibition [1 μM]: 82%
  Ki: 39 nM

## Cc1cccc(C(=O)NC2CCC(C(CCc3ccccc3)N(C)C)CC2)c1 (stereo not drawn) [compound 248, N-[4-(1-dimethylamino-3-phenyl-propyl)-cyclohexyl]-3-methyl-benzamide]
  inhibition at 1 µM: 81%
  Ki: 88 nM
